Assay results as given in patent US12110279B2, “Triazolones, tetrazolones, and imidazolones, or their salts, and pharmaceutical compositions comprising the same” (Yuhan Corporation, priority 2021, dated 2024).
Counter-ions that a name gives are not always drawn. Like-named read-outs stand apart in the source and are kept apart here.

Assays:
Format in all cases: biochemical
recombinant human VAP-1 = molecular target: T1, recombinant human VAP-1 (Homo sapiens, UniProt Q16853); experiment: Amplex Red HRP-coupled amine oxidase activity evaluation, recombinant human VAP-1; details: substrate 1 mM benzylamine; 30 min preincubation at 37° C.; read-out: Inhibitory Activity (IC50, nM) human VAP-1
T1 construct: purchased R&D systems
T1 sequence (Q16853 1-763): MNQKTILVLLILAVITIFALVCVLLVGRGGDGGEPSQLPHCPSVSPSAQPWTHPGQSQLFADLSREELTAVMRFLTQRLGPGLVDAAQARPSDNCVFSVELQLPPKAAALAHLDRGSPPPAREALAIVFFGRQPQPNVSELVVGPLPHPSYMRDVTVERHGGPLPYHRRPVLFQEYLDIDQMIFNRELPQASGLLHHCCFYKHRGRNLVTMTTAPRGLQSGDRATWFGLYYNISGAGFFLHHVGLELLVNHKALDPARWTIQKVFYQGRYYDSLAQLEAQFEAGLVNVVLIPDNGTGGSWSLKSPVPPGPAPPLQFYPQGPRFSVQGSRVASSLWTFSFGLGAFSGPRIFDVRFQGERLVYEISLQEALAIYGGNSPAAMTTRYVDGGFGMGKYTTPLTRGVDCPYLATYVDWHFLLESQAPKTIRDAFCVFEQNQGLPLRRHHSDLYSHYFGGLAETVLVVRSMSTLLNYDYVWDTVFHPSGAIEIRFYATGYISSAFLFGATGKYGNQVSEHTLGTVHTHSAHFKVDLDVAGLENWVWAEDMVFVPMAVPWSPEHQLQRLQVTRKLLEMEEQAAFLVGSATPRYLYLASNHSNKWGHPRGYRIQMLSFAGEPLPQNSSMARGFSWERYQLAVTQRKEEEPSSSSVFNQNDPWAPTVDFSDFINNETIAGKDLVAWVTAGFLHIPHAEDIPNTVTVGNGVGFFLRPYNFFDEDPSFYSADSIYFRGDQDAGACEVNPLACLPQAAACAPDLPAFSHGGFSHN
Method: (§1) The compounds according to the present technology were evaluated in terms of activity on recombinant human VAP-1 (R&D systems) by measuring the level of hydrogen peroxide in horseradish peroxidase (HRP)-coupled reaction using Amplex Red Hydrogen Peroxide Assay Kit (Molecular Probes, Invitrogen, USA). The experiment was carried out at room temperature using benzylamine as a substrate. In the HRP-coupled reaction, hydrogen peroxide oxidation of 10-acetyl-3,7-dihydroxyphenoxazine (Amplex Red reagent) produces resorufin, which is a highly fluorescent compound. Briefly, the test compound was dissolved in dimethyl sulfoxide (DMSO) at a concentration of 20 mM. The dose-response assessment was made by 1:3 serial dilution in DMSO, thereby creating an 8-point curve. The concentration of the upper part was controlled according to the efficacy of the compounds, followed by dilution with a reaction buffer solution to obtain a final DMSO concentration of less than 1%. To each well of a 96 black well plate, human VAP-1 purified in 50 mM sodium phosphate buffer solution (pH7.4) was added. The test compounds dissolved in DMSO were incubated with the human VAP-1 enzymes at 37° C. for 30 minutes. After 30-minute incubation, each well was added with a reaction mixture containing 200 uM Amplex Red reagent prepared from 50 mM sodium phosphate buffer solution (pH 7.4), 1 mM benzylamine, and 1 U/mL HRP. Fluorescence intensity was measured at several time points during 1-2 hours using a microplate reader (Flexstation3, Molecular Devices) under the wavelength condition exciting at 544 nm and reading the emission at 590 nm. The inhibitory effect of the compounds was measured as a decrease (%) in the signal rate as compared to the control group without any inhibitor (only diluted DMSO). Data was fixed to a logistic model with four variables and IC50 value was calculated using GraphPad Prism program.

[1] = molecular target: T2, recombinant human MAO-A (monoamine oxidase-A) (Homo sapiens, UniProt P21397); experiment: Amplex Red HRP-coupled amine oxidase activity evaluation, recombinant human MAO-A; details: substrate 0.5 mM tyramine; read-out: Inhibitory Activity (IC50, nM) MAO-A
T2 construct: purchased Sigma-Aldrich
T2 sequence (P21397 1-527): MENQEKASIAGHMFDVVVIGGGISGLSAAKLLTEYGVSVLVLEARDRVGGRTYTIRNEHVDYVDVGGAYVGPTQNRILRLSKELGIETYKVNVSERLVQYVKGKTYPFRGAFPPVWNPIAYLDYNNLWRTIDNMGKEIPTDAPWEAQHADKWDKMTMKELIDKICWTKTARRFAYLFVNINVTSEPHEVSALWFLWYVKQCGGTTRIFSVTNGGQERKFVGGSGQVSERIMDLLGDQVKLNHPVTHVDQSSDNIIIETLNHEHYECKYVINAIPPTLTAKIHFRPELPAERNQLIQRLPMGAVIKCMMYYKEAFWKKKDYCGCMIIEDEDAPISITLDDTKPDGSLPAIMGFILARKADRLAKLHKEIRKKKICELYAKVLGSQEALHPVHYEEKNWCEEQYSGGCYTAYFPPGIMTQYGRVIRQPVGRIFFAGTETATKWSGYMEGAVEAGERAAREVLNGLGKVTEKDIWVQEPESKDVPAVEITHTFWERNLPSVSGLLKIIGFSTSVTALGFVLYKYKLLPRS
Method: [The source words this procedure for another target and says it was used here with some conditions changed.] as §1

[2] = molecular target: T3, recombinant human DAO (diamine oxidase) (Homo sapiens, UniProt P19801); experiment: Amplex Red HRP-coupled amine oxidase activity evaluation, recombinant human DAO
T3 construct: purchased R&D systems
T3 sequence (P19801 20-751): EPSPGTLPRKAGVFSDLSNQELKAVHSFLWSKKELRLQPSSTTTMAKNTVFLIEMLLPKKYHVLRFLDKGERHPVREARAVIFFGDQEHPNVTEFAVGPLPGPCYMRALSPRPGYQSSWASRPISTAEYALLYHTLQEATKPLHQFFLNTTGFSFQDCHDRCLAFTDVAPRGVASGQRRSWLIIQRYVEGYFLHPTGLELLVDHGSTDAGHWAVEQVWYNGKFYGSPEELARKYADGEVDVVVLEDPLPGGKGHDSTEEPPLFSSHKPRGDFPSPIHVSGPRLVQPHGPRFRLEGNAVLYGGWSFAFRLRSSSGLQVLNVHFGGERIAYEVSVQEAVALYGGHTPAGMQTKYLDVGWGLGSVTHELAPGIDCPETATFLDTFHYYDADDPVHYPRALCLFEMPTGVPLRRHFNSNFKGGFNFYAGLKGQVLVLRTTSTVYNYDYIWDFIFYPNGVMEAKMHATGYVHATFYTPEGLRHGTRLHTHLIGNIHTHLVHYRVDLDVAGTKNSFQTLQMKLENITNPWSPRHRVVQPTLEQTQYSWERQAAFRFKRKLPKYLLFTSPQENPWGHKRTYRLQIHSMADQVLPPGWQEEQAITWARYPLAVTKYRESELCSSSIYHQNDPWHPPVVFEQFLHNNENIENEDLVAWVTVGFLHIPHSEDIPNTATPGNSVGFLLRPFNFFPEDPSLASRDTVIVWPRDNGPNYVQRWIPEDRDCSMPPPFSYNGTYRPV
Method: [The source words this procedure for another target and says it was used here with some conditions changed.] as §1

[3] = molecular target: T4, recombinant human MAO-B (monoamine oxidase-B) (Homo sapiens, UniProt P27338); experiment: Amplex Red HRP-coupled amine oxidase activity evaluation, recombinant human MAO-B; details: substrate 1 mM benzylamine; read-out: Inhibitory Activity (IC50, nM) MAO-B
T4 construct: purchased Sigma-Aldrich
T4 sequence (P27338 1-520): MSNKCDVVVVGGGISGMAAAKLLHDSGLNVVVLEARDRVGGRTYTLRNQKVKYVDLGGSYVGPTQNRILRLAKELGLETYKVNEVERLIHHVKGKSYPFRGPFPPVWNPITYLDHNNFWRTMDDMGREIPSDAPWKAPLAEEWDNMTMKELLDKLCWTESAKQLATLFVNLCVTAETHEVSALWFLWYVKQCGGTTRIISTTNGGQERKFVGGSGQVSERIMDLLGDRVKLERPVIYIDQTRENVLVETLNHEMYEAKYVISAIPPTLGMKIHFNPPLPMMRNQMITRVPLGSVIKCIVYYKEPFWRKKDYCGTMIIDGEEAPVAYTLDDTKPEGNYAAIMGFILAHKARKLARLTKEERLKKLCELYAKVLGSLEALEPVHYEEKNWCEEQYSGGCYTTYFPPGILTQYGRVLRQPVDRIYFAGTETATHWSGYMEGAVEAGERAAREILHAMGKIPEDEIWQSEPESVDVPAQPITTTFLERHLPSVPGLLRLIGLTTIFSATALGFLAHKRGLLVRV
Method: [The source words this procedure for another target and says it was used here with some conditions changed.] as §1

[4] = substrate 1 mM putrescine, read-out: Inhibitory Activity (IC50, nM) DAO

Structure (SMILES)	IC50 (recombinant human VAP-1) [nM]	IC50 [1] [nM]	IC50 [2] [nM]	IC50 [3] [nM]	IC50 [2, 4] [nM]
CCn1cc(-c2cccc(-n3nnn(CC(CN)=C(F)F)c3=O)c2)cn1 [Example 15, 1-[2-(aminomethyl)-3,3-difluoro-allyl]-4-[3-(1-ethylpyrazol-4-yl)phenyl]tetrazol-5-one trifluoroacetate]	1	> 100000	113	43500	–
NCC(Cn1nnn(Cc2cccc(-c3ccc4c(c3)OCO4)c2)c1=O)=C(F)F [Example 30, 1-[2-(aminomethyl)-3,3-difluoro-allyl]-4-[[3-(1,3-benzodioxol-5-yl)phenyl]methyl]tetrazol-5-one trifluoroacetate]	0.8	70900	–	206	1500
CCn1cc(-c2cccc(Cn3nnn(CC(CN)=C(F)F)c3=O)c2)ccc1=O [Example 34, 5-[3-[[4-[2-(aminomethyl)-3,3-difluoro-allyl]-5-oxo-tetrazol-1-yl]methyl]phenyl]-1-ethyl-pyridin-2-one trifluoroacetate]	0.6	> 100000	–	53900	12500
CCn1cc(-c2ccc(-n3nnn(CC(CN)=C(F)F)c3=O)cc2)ccc1=O [Example 18, 5-[4-[4-[2-(aminomethyl)-3,3-difluoro-allyl]-5-oxo-tetrazol-1-yl]phenyl]-1-ethyl-pyridin-2-one trifluoroacetate]	0.2	> 100000	–	78	> 100000
CS(=O)(=O)c1ccc(-c2cccc(-n3nnn(CC(CN)=C(F)F)c3=O)c2)cc1 [Example 10, 1-[2-(aminomethyl)-3,3-difluoro-allyl]-4-[3-(4-methylsulfonylphenyl)phenyl]tetrazol-5-one trifluoroacetate]	0.4	> 100000	2.2	53200	–
NCC(Cn1nnn(-c2ccc(-c3ccc(N4CCNCC4)cc3)cc2)c1=O)=C(F)F [Example 17, 1-[2-(aminomethyl)-3,3-difluoro-allyl]-4-[4-(4-piperazin-1-ylphenyl)phenyl]tetrazol-5-one di-trifluoroacetate]	1.2	> 100000	–	3990	65
Cc1ccc(-c2ccc3c(c2)CCC(=O)N3C)nc1-n1nnn(CC(CN)=C(F)F)c1=O [Example 26, 6-[6-[4-[2-(aminomethyl)-3,3-difluoro-allyl]-5-oxo-tetrazol-1-yl]-5-methyl-2-pyridyl]-1-methyl-3,4-dihydroquinolin-2-one trifluoroacetate]	19	> 100000	4370	> 100000	–
Cc1cc(-c2ccc(Cn3c(C)nn(CC(CN)=C(F)F)c3=O)s2)cc2c1NC(=O)CC2 [Example 7, 6-[5-[[1-[2-(aminomethyl)-3,3-difluoro-allyl]-3-methyl-5-oxo-1,2,4-triazol-4-yl]methyl]-2-thienyl]-8-methyl-3,4-dihydro-1H-quinolin-2-one trifluoroacetate]	1	> 100000	–	> 100000	> 100000

Other lines, results leading:

IC50 (recombinant human VAP-1) [nM]	IC50 [1] [nM]	IC50 [2] [nM]	IC50 [3] [nM]	IC50 [2, 4] [nM]	Structure (SMILES)
0.4	> 100000	–	1430	32200	CS(=O)(=O)c1ccc(-c2csc(-n3nnn(CC(CN)=C(F)F)c3=O)c2)cc1 [Example 35, 1-[2-(aminomethyl)-3,3-difluoro-allyl]-4-[4-(4-methylsulfonylphenyl)-2-thienyl]tetrazol-5-one trifluoroacetate]
0.6	26200	–	21	88	NCC(Cn1nnn(-c2cc(-c3ccc4c(c3)OCO4)cs2)c1=O)=C(F)F [Example 39, 1-[2-(aminomethyl)-3,3-difluoro-allyl]-4-[4-(1,3-benzodioxol-5-yl)-2-thienyl]tetrazol-5-one trifluoroacetate]
0.5	> 100000	–	15100	8170	CCn1cc(-c2ccc(Cn3nnn(CC(CN)=C(F)F)c3=O)s2)cn1 [Example 47, 1-[2-(aminomethyl)-3,3-difluoro-allyl]-4-[[5-(1-ethylpyrazol-4-yl)-2-thienyl]methyl]tetrazol-5-one trifluoroacetate]
2.9	36900	56	4400	–	NCC(Cn1nnn(-c2cncc(-c3ccc4c(c3)OCO4)c2)c1=O)=C(F)F [Example 48, 1-[2-(aminomethyl)-3,3-difluoro-allyl]-4-[5-(1,3-benzodioxol-5-yl)-3-pyridyl]tetrazol-5-one trifluoroacetate]
